Consider ten compounds from PubChem BioAssay AID248 (DTP/NCI, 2004).

The assay relates to L1210 leukemia ip in BDF1 mice, survival T/C. Description: NCI In Vivo Anticancer Drug Screen. Data for tumor model L1210 Leukemia (intraperitoneal) in B6D2F1 (BDF1) mice. As to conditions: endpoint: mean survival time, higher = longer survival. The method in brief:
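Transplanted-tumor mice were given test agent; controls received vehicle only. Survival readings from the two groups were divided (treated over control).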

Where “and” joins values, the source holds several entries; their conditions need not be identical. Equal entries are not always repeated. Toxic doses and inconclusive results are not listed.

`CN(N=O)C(=O)NC(=O)N(C)N=O`: the T/C was 155 % of control (dose: 18.0 mg/kg/injection, schedule: Q01DX Z (ip), vehicle: carboxymethylcellulose (CMC)); 110 % of control (dose: 27.5 mg/kg/injection, schedule: Q01DX001 (ip), vehicle: carboxymethylcellulose (CMC)); 118 % of control (dose: 54.0 mg/kg/injection, schedule: Q01DX001 (ip), vehicle: carboxymethylcellulose (CMC)); 87 % of control (dose: 75.0 mg/kg/injection, schedule: Q01DX Z (ip), vehicle: carboxymethylcellulose (CMC)); 86 % of control (dose: 108.0 mg/kg/injection, schedule: Q01DX001 (ip), vehicle: carboxymethylcellulose (CMC)).
As to `NC1CCC(CC2CCCCCC2)CC1` (centres undefined), the T/C (dose: 6.25 mg/kg/injection, schedule: Q01DX009 (ip), vehicle: Klucel (hydroxypropylcellulose) (HPC)) is 107 % of control; the T/C (dose: 12.5 mg/kg/injection, schedule: Q01DX009 (ip), vehicle: Klucel (hydroxypropylcellulose) (HPC)) is 100 % of control; the T/C (dose: 25.0 mg/kg/injection, schedule: Q01DX009 (ip), vehicle: Klucel (hydroxypropylcellulose) (HPC)) was 97 % of control and 98 % of control.
As to `Cc1cc(N(CCCl)CCCl)ccc1CN1CCCN(Cc2ccc(N(CCCl)CCCl)cc2C)C1c1ccccc1O`, the T/C (dose: 50.0 mg/kg/injection, schedule: Q01DX001 (ip), vehicle: carboxymethylcellulose (CMC)) was 106 % of control; the T/C (dose: 100.0 mg/kg/injection, schedule: Q01DX001 (ip), vehicle: carboxymethylcellulose (CMC)) was 103 % of control; the T/C (dose: 100.0 mg/kg/injection, schedule: Q04DX003 (ip), vehicle: Klucel (hydroxypropylcellulose) (HPC)) was 117 % of control; the T/C (dose: 200.0 mg/kg/injection, schedule: Q01DX001 (ip), vehicle: carboxymethylcellulose (CMC)) was 103 % of control; the T/C (dose: 200.0 mg/kg/injection, schedule: Q04DX003 (ip), vehicle: Klucel (hydroxypropylcellulose) (HPC)) is 110 % of control; the T/C (dose: 400.0 mg/kg/injection, schedule: Q01DX001 (ip), vehicle: carboxymethylcellulose (CMC)) was 103 % of control. The T/C (dose: 400.0 mg/kg/injection, schedule: Q04DX003 (ip), vehicle: Klucel (hydroxypropylcellulose) (HPC)) is 122 % of control.
With `CCC(=O)Nc1cccc(OC(=O)NC(C)CC)c1` (centres undefined), the T/C is 93 % of control (dose: 100.0 mg/kg/injection, schedule: Q04DX003 (ip), vehicle: saline with Tween-80); 97 % of control (dose: 200.0 mg/kg/injection, schedule: Q04DX003 (ip), vehicle: saline with Tween-80); 92 % of control (dose: 400.0 mg/kg/injection, schedule: Q04DX003 (ip), vehicle: saline with Tween-80).
As to `COc1cc2c3c(c4ccc(O)cc4c2cc1OC)[C@@H](O)[C@@H]1CCCN1C3`, the T/C reads like this: (dose: 2.5 mg/kg/injection, schedule: Q01DX005 (ip), vehicle: water) 106 % of control; (dose: 2.5 mg/kg/injection, schedule: Q01DX009 (ip), vehicle: water) 95 % of control; (dose: 2.5 mg/kg/injection, schedule: Q01DX015 (ip), vehicle: water) 105 % of control; (dose: 5.0 mg/kg/injection, schedule: Q01DX001 (ip), vehicle: water) 98 % of control; (dose: 5.0 mg/kg/injection, schedule: Q01DX005 (ip), vehicle: water) 104 % of control; (dose: 5.0 mg/kg/injection, schedule: Q01DX009 (ip), vehicle: water) 119 % of control. Moreover, the T/C is 109 % of control (dose: 5.0 mg/kg/injection, schedule: Q01DX009 (sc), vehicle: water); 120 % of control (dose: 5.0 mg/kg/injection, schedule: Q01DX015 (ip), vehicle: water); 114 % of control (dose: 5.0 mg/kg/injection, schedule: Q02DX005 (ip), vehicle: water); 111 % of control (dose: 5.0 mg/kg/injection, schedule: Q## X003 (ip), vehicle: water); 124 % of control (dose: 6.0 mg/kg/injection, schedule: Q01DX Z (ip), vehicle: water); 112 % of control (dose: 6.7 mg/kg/injection, schedule: Q01DX015 (ip), vehicle: water). Moreover, the T/C was 112 % of control (dose: 7.1 mg/kg/injection, schedule: Q01DX015 (ip), vehicle: water); 108 % of control (dose: 10.0 mg/kg/injection, schedule: Q01DX001 (ip), vehicle: water); 109 % of control (dose: 10.0 mg/kg/injection, schedule: Q01DX005 (ip), vehicle: water); 119 % of control (dose: 10.0 mg/kg/injection, schedule: Q01DX009 (ip), vehicle: water); 114 % of control (dose: 10.0 mg/kg/injection, schedule: Q01DX009 (oral), vehicle: water); 122 % of control (dose: 10.0 mg/kg/injection, schedule: Q01DX009 (sc), vehicle: water). For the same compound, the T/C (dose: 10.0 mg/kg/injection, schedule: Q01DX015 (ip), vehicle: water) is 112 % of control; the T/C (dose: 10.0 mg/kg/injection, schedule: Q## X003 (ip), vehicle: water) is 101 % of control; the T/C (dose: 12.0 mg/kg/injection, schedule: Q01DX Z (ip), vehicle: water) was 151 % of control; the T/C (dose: 15.0 mg/kg/injection, schedule: Q01DX005 (ip), vehicle: water) is 117 % of control; the T/C (dose: 15.0 mg/kg/injection, schedule: Q01DX009 (ip), vehicle: water) was 120 % of control; the T/C (dose: 15.0 mg/kg/injection, schedule: Q01DX009 (sc), vehicle: water) is 119 % of control. The T/C by setting is: (dose: 15.0 mg/kg/injection, schedule: Q01DX015 (ip), vehicle: water) 109 % of control; (dose: 15.0 mg/kg/injection, schedule: Q02DX005 (ip), vehicle: water) 124 % of control; (dose: 15.0 mg/kg/injection, schedule: Q## X003 (ip), vehicle: water) 119 % of control; (dose: 20.0 mg/kg/injection, schedule: Q01DX001 (ip), vehicle: water) 104 % of control; (dose: 20.0 mg/kg/injection, schedule: Q01DX009 (ip), vehicle: water) 114 % of control; (dose: 20.0 mg/kg/injection, schedule: Q01DX009 (oral), vehicle: water) 109 % of control. Besides, the T/C (dose: 20.0 mg/kg/injection, schedule: Q01DX009 (sc), vehicle: water) was 88 % of control; the T/C (dose: 20.0 mg/kg/injection, schedule: Q01DX Z (ip), vehicle: water) is 110 % of control; the T/C (dose: 20.0 mg/kg/injection, schedule: Q## X003 (ip), vehicle: water) is 117 % of control; the T/C (dose: 22.5 mg/kg/injection, schedule: Q01DX015 (ip), vehicle: water) was 123 % of control; the T/C (dose: 25.0 mg/kg/injection, schedule: Q01DX015 (ip), vehicle: water) was 96 % of control; the T/C (dose: 30.0 mg/kg/injection, schedule: Q01DX009 (oral), vehicle: water) is 100 % of control. Also, the T/C (dose: 40.0 mg/kg/injection, schedule: Q01DX001 (ip), vehicle: water) is 114 % of control.
On to `Cc1ccc[nH]c1=O`, for which the T/C is 95 % of control (dose: 50.0 mg/kg/injection, schedule: Q01DX009 (ip), vehicle: saline); 93 % of control (dose: 100.0 mg/kg/injection, schedule: Q01DX009 (ip), vehicle: saline); 107 % of control (dose: 100.0 mg/kg/injection, schedule: Q04DX003 (ip), vehicle: saline); 91 % of control (dose: 200.0 mg/kg/injection, schedule: Q01DX009 (ip), vehicle: saline); 109 % of control (dose: 200.0 mg/kg/injection, schedule: Q04DX003 (ip), vehicle: saline).
On to `CC(=O)NC12CC3CC(CC(C)(C3)C1)C2`, for which the T/C is 103 % of control (dose: 100.0 mg/kg/injection, schedule: Q01DX001 (ip), vehicle: Klucel (hydroxypropylcellulose) (HPC)) and 106 % of control (dose: 200.0 mg/kg/injection, schedule: Q01DX001 (ip), vehicle: Klucel (hydroxypropylcellulose) (HPC)).
For the compound `NNC(=O)CNc1ccc(F)cc1F`, the T/C is, setting by setting: (dose: 100.0 mg/kg/injection, schedule: Q04DX002 (ip), vehicle: Klucel (hydroxypropylcellulose) (HPC)) 101 % of control; (dose: 200.0 mg/kg/injection, schedule: Q04DX002 (ip), vehicle: Klucel (hydroxypropylcellulose) (HPC)) 114 % of control.
As to `CC(=O)Nc1cc(C)cc(NC(C)=O)c1C`, the T/C is 94 % of control (dose: 75.0 mg/kg/injection, schedule: Q01DX001 (ip), vehicle: carboxymethylcellulose (CMC)) and 90 % of control (dose: 300.0 mg/kg/injection, schedule: Q01DX001 (ip), vehicle: carboxymethylcellulose (CMC)).
Turning to `C/C=C(\Nc1ccc([N+](=O)[O-])cc1[N+](=O)[O-])C(=O)OC`, the T/C runs as follows: (dose: 100.0 mg/kg/injection, schedule: Q01DX001 (ip), vehicle: saline) 101 % of control; (dose: 200.0 mg/kg/injection, schedule: Q01DX001 (ip), vehicle: saline) 98 % of control; (dose: 400.0 mg/kg/injection, schedule: Q01DX001 (ip), vehicle: saline) 101 % of control.
